Results on 20 compounds are retold here after US20260217708A1, “FUSED BENZAZEPINE DERIVATIVES FOR USE IN THE TREATMENT OF CANCER AND EPILEPSY” (UCB BIOPHARMA SRL, priority 2023, published 2026).

Assay [1] has as its target T1, system Xc^− (Homo sapiens, UniProt Q9UPY5).
T1 sequence (Q9UPY5 1-501): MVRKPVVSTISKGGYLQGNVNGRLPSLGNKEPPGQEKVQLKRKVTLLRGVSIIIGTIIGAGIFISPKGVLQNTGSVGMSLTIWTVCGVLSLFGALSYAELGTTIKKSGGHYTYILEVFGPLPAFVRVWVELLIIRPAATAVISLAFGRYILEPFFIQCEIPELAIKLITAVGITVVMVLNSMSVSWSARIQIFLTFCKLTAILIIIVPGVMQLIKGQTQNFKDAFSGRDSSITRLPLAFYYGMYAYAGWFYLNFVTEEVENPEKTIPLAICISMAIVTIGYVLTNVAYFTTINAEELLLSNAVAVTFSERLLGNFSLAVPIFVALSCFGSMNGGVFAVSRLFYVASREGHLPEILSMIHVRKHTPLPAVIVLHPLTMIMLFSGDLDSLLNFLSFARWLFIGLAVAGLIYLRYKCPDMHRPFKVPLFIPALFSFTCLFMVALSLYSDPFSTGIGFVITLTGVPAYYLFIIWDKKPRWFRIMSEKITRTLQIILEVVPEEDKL
T1 sequence (P08195 1-529 partner): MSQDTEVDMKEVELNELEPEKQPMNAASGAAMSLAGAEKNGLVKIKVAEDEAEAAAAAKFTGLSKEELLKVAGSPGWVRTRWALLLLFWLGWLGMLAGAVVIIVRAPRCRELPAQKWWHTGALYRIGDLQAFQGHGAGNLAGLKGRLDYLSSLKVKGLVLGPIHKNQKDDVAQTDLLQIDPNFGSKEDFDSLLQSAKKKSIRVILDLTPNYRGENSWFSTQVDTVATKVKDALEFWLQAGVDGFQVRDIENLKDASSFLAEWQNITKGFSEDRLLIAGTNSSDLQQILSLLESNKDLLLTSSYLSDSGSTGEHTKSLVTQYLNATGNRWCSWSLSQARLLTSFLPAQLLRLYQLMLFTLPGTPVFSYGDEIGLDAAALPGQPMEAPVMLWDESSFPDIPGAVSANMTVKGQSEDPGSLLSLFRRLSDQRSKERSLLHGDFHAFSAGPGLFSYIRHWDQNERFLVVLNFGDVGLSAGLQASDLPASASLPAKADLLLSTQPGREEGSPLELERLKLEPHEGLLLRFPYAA
Briefly: Cystine-induced glutamate release assay. To be noted: H4 cells, sodium-free HEPES buffer, 50 μM L-Cystine, 2 hours, Amplex Red glutamate readout; read-out: pIC50 Cystine-induced glutamate release assay (converted). The class given is cell-based. Also noted: endogenous in cells; host or cells: H4 cells. The gist of the method:
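IC50 (reported as pIC50) normalized to DMSO 1% and Erastin 50 μM controls, from Amplex Red fluorescence of glutamate exported into supernatant. H4 cells were washed into sodium-free buffer to exclude EAAT transport, then given compound with 50 μM L-cystine for 2 h in the incubator.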

Assay [2] addresses T1, system Xc^−. In words: [^14C]L-Cystine uptake assay. The class given is cell-based. Also noted: endogenous in cells; host or cells: H4 cells. To be noted: H4 cells, sodium-free HEPES buffer, 0.5 μM L-[14C]Cystine and 4.5 μM L-Cystine, 1 hour at 37° C.; read-out: pIC50 [^14C] L-Cystine uptake assay (converted). The gist of the method: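 Compound effect is given as pIC50, taken between controls of 1% DMSO and 50 μM Erastin. Human H4 cells were pretreated 15 min with compound in sodium-free buffer, then took up 0.5 μM [14C]cystine with 4.5 μM cold cystine for 1 hour at 37° C, read by scintillation proximity counting.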

`Cc1cc2c(c(F)n1)-c1cccnc1[C@@H](C)C(=O)N2CC(=O)Nc1ccc2c(c1)CC(F)(F)C2` [#237, N-(2,2-difluoroindan-5-yl)-2-[(10R)-3-fluoro-5,10-dimethyl-9-oxo-4,8,12-triazatricyclo[9.4.0.0^2,7]pentadeca-1(15),2,4,6,11,13-hexaen-8-yl]acetamide]: the figures for the IC50 on system Xc^− [1] and at system Xc^− [2] were 15.8 to 39.8 nM and 39.8 to 100 nM, respectively.

For `O=C(CN1C(=O)Cc2ncccc2-c2c1cc(Cl)c(F)c2Cl)Nc1ccc(C(F)(F)F)cc1` [#52, 2-(9,11-dichloro-10-fluoro-6-oxo-5H-pyrido[2,3-d][1]benz-azepin-7-yl)-N-[4-(trifluoromethyl)phen-yl]acetamide], the IC50 at system Xc^− [1] and on system Xc^− [2] was 100 to 501 nM in each case.

For `COc1nccc2c1-c1cccnc1C(C)C(=O)N2CC(=O)Nc1ccc(Cl)c(F)c1` (single isomer, unassigned) [#297, N-(4-chloro-3-fluoro-phenyl)-2-[3-methoxy-10-methyl-9-oxo-4,8,12-triazatricyclo[9.4.0.0^2,7]pentadeca-1(15),2(7),3,5,11,13-hexaen-8-yl]acetamide], the IC50 at system Xc^− [1] and at system Xc^− [2] was less than 15.8 nM each time.

Consider `CC1C(=O)N(CC(=O)Nc2ccc(Cl)c(F)c2)c2cccc(F)c2-c2cccnc21` (single isomer, unassigned) [#409, N-(4-chloro-3-fluoro-phenyl)-2-[11-fluoro-5-methyl-6-oxo-5H-pyrido[2,3-d][1]benzazepin-7-yl]acetamide], for which the IC50 on system Xc^− [1] and on system Xc^− [2] was 15.8 to 39.8 nM throughout.

As to `Cc1cc2c(c(F)n1)-c1cccnc1C(C)C(=O)N2CC(=O)Nc1ccc(F)c(F)c1` (stereo not shown) [#130, N-(3,4-difluorophenyl)-2-(3-fluoro-5,10-dimethyl-9-oxo-4,8,12-triazatricyclo[9.4.0.0^2,7]pentadeca-1(11),2(7),3,5,12,14-hexaen-8-yl)acetamide], the IC50 at system Xc^− [1] and on system Xc^− [2] was 39.8 to 100 nM throughout.

Turning to `O=C(CN1C(=O)Cc2ccccc2-c2c1cc(C(F)F)nc2Cl)Nc1ccc(C(F)F)cc1` [#339, 2-[1-chloro-3-(difluoromethyl)-6-oxo-7H-pyrido[4,3-d][3]benzazepin-5-yl]-N-[4-(difluoromethyl)phenyl]acetamide], the IC50 on system Xc^− [1] and on system Xc^− [2] was less than 15.8 nM each time.

On to `Cc1cc2c(c(Cl)n1)-c1cc(F)nn1C(C)C(=O)N2CC(=O)Nc1ccc(C(F)F)cc1` (single isomer, unassigned) [#389, 2-[14-chloro-4-fluoro-7,12-dimethyl-8-oxo-5,6,9,13-tetrazatricyclo[8.4.0.0^2,6]tetradeca-1(14),2,4,10,12-pentaen-9-yl]-N-[4-(difluoromethyl)phenyl]acetamide], for which the IC50 on system Xc^− [1] and at system Xc^− [2] was less than 15.8 nM each time.

On to `O=C(CN1C(=O)C(CO)c2ncccc2-c2c(F)cc(F)cc21)Nc1ccc(Cl)c(F)c1` (single isomer, unassigned) [#381, N-(4-chloro-3-fluoro-phenyl)-2-[9,11-difluoro-5-(hydroxymethyl)-6-oxo-5H-pyrido[2,3-d][1]benzazepin-7-yl]acetamide], for which the values for the IC50 at system Xc^− [1] and on system Xc^− [2] were 39.8 to 100 nM and 100 to 501 nM, respectively.

Consider `Cc1cc2c(c(F)n1)-c1cncnc1C(C)C(=O)N2CC(=O)Nc1ccc(Cl)c(F)c1` (single isomer, unassigned) [#217, Enantiomer (8S) or (8R) of N-(4-chloro-3-fluoro-phenyl)-2-[15-fluoro-8,13-dimethyl-9-oxo-4,6,10,14-tetrazatricyclo[9.4.0.0^2,7]pentadeca-1(15),2,4,6,11,13-hexaen-10-yl]acetamide], for which the IC50 at system Xc^− [1] and at system Xc^− [2] was less than 15.8 nM throughout.

Take `Cc1cc2c(c(F)n1)-c1cccnc1[C@@H](C)C(=O)N2CC(=O)Nc1csc(Cl)c1` [#243, N-(5-chloro-3-thienyl)-2-[(10R)-3-fluoro-5,10-dimethyl-9-oxo-4,8,12-triazatricyclo[9.4.0.0^2,7]pentadeca-1(11),2(7),3,5,12,14-hexaen-8-yl]acetamide]: the results for the IC50 on system Xc^− [1] and on system Xc^− [2] were 15.8 to 39.8 nM and 39.8 to 100 nM, respectively.

For `Cc1cc2c(c(Cl)n1)-c1ccccc1CC(=O)N2CC(=O)Nc1ccc(Cl)c(F)c1` [#50, N-(4-chloro-3-fluoro-phenyl)-2-(1-chloro-3-methyl-6-oxo-7H-pyrido[4,3-d][3]benz-azepin-5-yl)acetamide], the IC50 at system Xc^− [1] was 39.8 to 100 nM; on system Xc^− [2], less than 15.8 nM.

In the case of `O=C(CN1C(=O)Cc2ccccc2-c2cnc(CO)cc21)Nc1ccc(C(F)(F)F)cc1` [#60, 2-[3-(hydroxymethyl)-6-oxo-7H-pyrido[4,3-d][3]benzazepin-5-yl]-N-[4-(trifluoromethyl)phenyl]acetamide], the IC50 on system Xc^− [1] and at system Xc^− [2] was 100 to 501 nM in each case.

As to `Cc1cc2c(cn1)-c1ccnn1CC(=O)N2CC(=O)Nc1ccc(C(F)(F)F)cc1` [#48, 2-(12-methyl-8-oxo-5,6,9,13-tetrazatricyclo[8.4.0.0^2,6]tetradeca-1(10),2,4,11,13-pentaen-9-yl)-N-[4-(trifluoromethyl)phenyl]acetamide], the IC50 on system Xc^− [1] and at system Xc^− [2] was 100 to 501 nM throughout.

As for `Cc1cc2c(cn1)-c1ccnn1C(C)C(=O)N2CC(=O)Nc1ccc(Cl)c(F)c1` (single isomer, unassigned) [#186, enantiomer (7S) or (7R) of N-(4-chloro-3-fluoro-phenyl)-2-[7,12-dimethyl-8-oxo-5,6,9,13-tetrazatricyclo[8.4.0.0^2,6]tetradeca-1(10),2,4,11,13-pentaen-9-yl]acetamide], the results for the IC50 at system Xc^− [1] and at system Xc^− [2] were 15.8 to 39.8 nM and 39.8 to 100 nM, respectively.

Turning to `CC1C(=O)N(CC(=O)Nc2ccc(C(F)F)cc2)c2cc(N3CC4(CCOC4)C3)nc(F)c2-c2cccnc21` (single isomer, unassigned) [#282, N-[4-(difluoromethyl)phenyl]-2-[3-fluoro-10-methyl-5-(6-oxa-2-azaspiro[3.4]octan-2-yl)-9-oxo-4,8,12-triazatricyclo[9.4.0.0^2,7]pentadeca-1(15),2,4,6,11,13-hexaen-8-yl]acetamide], the IC50 at system Xc^− [1] was 15.8 to 39.8 nM; on system Xc^− [2], less than 15.8 nM.

Turning to `CC1C(=O)N(CC(=O)Nc2ccc(Cl)c(F)c2)c2cc(C#N)ccc2-c2cccnc21` (stereo not shown) [#311, N-(4-chloro-3-fluoro-phenyl)-2-(9-cyano-5-methyl-6-oxo-5H-pyrido[2,3-d][1]benzazepin-7-yl)acetamide], the IC50 is less than 15.8 nM at system Xc^− [1] and 39.8 to 100 nM on system Xc^− [2].

Regarding `Cc1cc(F)c2c(c1)N(CC(=O)Nc1ccc(C(F)F)cc1)C(=O)C(C)c1ncncc1-2` (stereo not shown) [#370, N-[4-(difluoromethyl)phenyl]-2-(11-fluoro-5,9-dimethyl-6-oxo-5H-pyrimido[4,5-d][1]benzazepin-7-yl)acetamide], the IC50 at system Xc^− [1] and at system Xc^− [2] was 39.8 to 100 nM in each case.

In the case of `Cc1cc2c(c(F)n1)-c1cccnc1[C@@H](C)C(=O)N2CC(=O)Nc1ccc(I)cc1` [#138, 2-[(10R)-3-fluoro-5,10-dimethyl-9-oxo-4,8,12-triazatricyclo[9.4.0^2,7]pentadeca-1(11),2(7),3,5,12,14-hexaen-8-yl]-N-(4-iodophenyl)acetamide], the IC50 on system Xc^− [1] and on system Xc^− [2] was less than 15.8 nM throughout.

In the case of `COc1nc(C)cc2c1-c1cncnc1C(C)C(=O)N2CC(=O)Nc1ccc(C(F)(F)F)cc1` (stereo not shown) [#157, 2-(15-methoxy-8,13-dimethyl-9-oxo-4,6,10,14-tetrazatricyclo[9.4.0.0^2,7]pentadeca-1(11),2(7),3,5,12,14-hexaen-10-yl)-N-[4-(trifluoromethyl)phenyl]acetamide], the IC50 at system Xc^− [1] is 15.8 to 39.8 nM; at system Xc^− [2], less than 15.8 nM.

`Cc1cc2c(c(F)n1)-c1cccnc1C(C)C(=O)N2CC(=O)Nc1ccc(C#N)c(F)c1` (stereo not shown) [#133, N-(4-cyano-3-fluoro-phenyl)-2-(3-fluoro-5,10-dimethyl-9-oxo-4,8,12-triazatricyclo[9.4.0.0^2,7]pentadeca-1(11),2(7),3,5,12,14-hexaen-8-yl)acetamide]: the IC50 at system Xc^− [1] and at system Xc^− [2] was 39.8 to 100 nM each time.
